Structures can show the parent of a compound that is named as a salt. Where two headings read alike, the source gives them in different places.
Tests used:
[1] = test system: VN-MCC cell lines (MCC13, MCC26, UISO); assay: qHTS cell viability, VN-MCC cell lines as a group (mean AUC, VN.MCC.avg); format: cell-based, human
[2] = test system: VP-MCC cell lines (WAGA, MKL-1, MKL-2); assay: qHTS cell viability, VP-MCC cell lines as a group (mean AUC, VP.MCC.avg); format: cell-based, human
[3] = test system: MCC13 cells (VN-MCC); assay: qHTS cell viability (CellTiter-Glo, 72 h; primary and follow-up small molecule screen); format: cell-based, human
[4] = test system: six MCC cell lines and four control cell lines; assay: qHTS cell viability, all 10 cell lines screened; format: cell-based
[5] = test system: control cell lines (HACAT, HEK293T, CRL-7250, NIH-3T3); assay: qHTS cell viability, control cell lines as a group (mean AUC, Control.avg); format: cell-based
[6] = test system: UISO cells (VN-MCC); assay: qHTS cell viability (CellTiter-Glo, 72 h; primary and follow-up small molecule screen); format: cell-based, human
[7] = test system: MCC cell lines (WAGA, MKL-1, MKL-2, MCC13, MCC26, UISO); assay: qHTS cell viability, all six MCC cell lines as a group (mean AUC, MCC.avg); format: cell-based, human
[8] = test system: MKL-2 cells (VP-MCC); assay: qHTS cell viability (CellTiter-Glo, 72 h; primary and follow-up small molecule screen); format: cell-based, human
[9] = test system: HACAT cells; assay: qHTS cell viability (CellTiter-Glo, 72 h; primary screen), control cell line; format: cell-based, human
[10] = test system: CRL-7250 cells; assay: as above; format: cell-based
[11] = test system: NIH-3T3 cells; assay: as above; format: cell-based, mouse
[12] = test system: WAGA cells (VP-MCC); assay: qHTS cell viability (CellTiter-Glo, 72 h; primary and follow-up small molecule screen); format: cell-based, human
[13] = test system: HEK293T cells; assay: qHTS cell viability (CellTiter-Glo, 72 h; primary screen), control cell line; format: cell-based, human
[14] = test system: MCC26 cells (VN-MCC); assay: qHTS cell viability (CellTiter-Glo, 72 h; primary and follow-up small molecule screen); format: cell-based, human
[15] = test system: MKL-1 cells (VP-MCC); assay: as above; format: cell-based, human
[16] = MIPE library, Control AUC minus VN-MCC AUC (therapeutic window), sheet S2E
[17] = MIPE library, mean AUC of VN-MCC cell lines, sheet S2E
[18] = MIPE library, Control AUC minus VP-MCC AUC (therapeutic window), sheet S2E
[19] = MIPE library, mean AUC of VP-MCC cell lines, sheet S2E
[20] = MIPE library, 11-point DRC, sheet S2E
[21] = area under the dose-response curve, MCC13 cells, AUC<450 = reduced viability
[22] = MIPE library, Control AUC minus MCC AUC (therapeutic window), sheet S2E
[23] = MIPE library, mean AUC of control cell lines, sheet S2E
[24] = area under the dose-response curve, UISO cells, AUC<450 = reduced viability
[25] = MIPE library, mean AUC of six MCC cell lines, sheet S2E
[26] = area under the dose-response curve, MKL-2 cells, AUC<450 = reduced viability
[27] = MIPE library, 11-point DRC, control cell line, sheet S2E
[28] = area under the dose-response curve, HACAT control cells, AUC<450 = reduced viability
[29] = area under the dose-response curve, CRL7250 control cells, AUC<450 = reduced viability
[30] = area under the dose-response curve, NIH3T3 control cells, AUC<450 = reduced viability
[31] = area under the dose-response curve, WAGA cells, AUC<450 = reduced viability
[32] = area under the dose-response curve, HEK293T control cells, AUC<450 = reduced viability
[33] = area under the dose-response curve, MCC26 cells, AUC<450 = reduced viability
[34] = area under the dose-response curve, MKL-1 cells, AUC<450 = reduced viability

C=CCC1([C@H](C)CCC)C(=O)NC(=O)NC1=O [S-(-)-Secobarbital]
Control-VN-MCC [1]: 48.3879
VN-MCC_Avg_AUC [1]: 437.495
Control-VP-MCC [2]: 50.9524
VP-MCC_Avg_AUC [2]: 434.931
MCC13_AUC [3]: 460.136
Control-MCC [4]: 49.6701
Control_Avg_AUC [5]: 485.883
UISO_AUC [6]: 438.072
MCC_Avg_AUC [7]: 436.213
MKL2_AUC [8]: 429.062
HACAT_AUC [9]: 491.817
CRL7250_AUC [10]: 492.207
NIH3T3_AUC [11]: 473.981
WAGA_AUC [12]: 434.137
HEK293T_AUC [13]: 485.529
MCC26_AUC [14]: 414.278
MKL1_AUC [15]: 441.594

Cc1c(C)n(Cc2ccc(-c3ccccc3C(=O)O)cc2)c2ccc(C(=O)N[C@@H](C)c3ccc([N+](=O)[O-])cc3)cc12 [SR1664]
Control-VN-MCC [1, 16]: 4.574
VN-MCC_Avg_AUC [1, 17]: 472.695
Control-VP-MCC [2, 18]: 161.027
VP-MCC_Avg_AUC [2, 19]: 316.242
MCC13_AUC [3, 20]: 475.759
MCC13_AUC [3, 21]: 475.759
Control-MCC [4, 22]: 82.8007
Control_Avg_AUC [5, 23]: 477.269
UISO_AUC [6, 20]: 472.261
UISO_AUC [6, 24]: 472.261
MCC_Avg_AUC [7, 25]: 394.468
MKL2_AUC [8, 20]: 319.019
MKL2_AUC [8, 26]: 319.019
HACAT_AUC [9, 27]: 479.075
HACAT_AUC [9, 28]: 479.075
CRL7250_AUC [10, 27]: 475.771
CRL7250_AUC [10, 29]: 475.77
NIH3T3_AUC [11, 27]: 484.086
NIH3T3_AUC [11, 30]: 484.086
WAGA_AUC [12, 20]: 329.214
WAGA_AUC [12, 31]: 329.214
HEK293T_AUC [13, 27]: 470.145
HEK293T_AUC [13, 32]: 470.145
MCC26_AUC [14, 20]: 470.066
MCC26_AUC [14, 33]: 470.066
MKL1_AUC [15, 20]: 300.491
MKL1_AUC [15, 34]: 300.491

O=C(N/N=C/c1ccccc1O)c1ccncc1 [Salinazid]
Control-VN-MCC ([1]; Control AUC minus VN-MCC AUC): 51.9858
VN-MCC_Avg_AUC ([1]; NPC library, mean AUC of VN-MCC cell lines): 408.107
Control-VN-MCC ([1]; NPC library, therapeutic window: Control avg AUC minus VN-MCC avg AUC): 51.9858
Control-VP-MCC ([2]; Control AUC minus VP-MCC AUC): 91.9801
VP-MCC_Avg_AUC ([2]; NPC library, mean AUC of VP-MCC cell lines): 368.113
Control-VP-MCC ([2]; NPC library, therapeutic window: Control avg AUC minus VP-MCC avg AUC): 91.9801
MCC13_AUC ([3]; NPC library, qHTS dose-response AUC, MCC13): 439.405
Control-MCC ([4]; NPC library, therapeutic window: Control avg AUC minus MCC avg AUC): 71.983
Control_Avg_AUC ([5]; NPC library, mean AUC of control cell lines): 460.093
UISO_AUC ([6]; NPC library, qHTS dose-response AUC, UISO): 339.128
MCC_Avg_AUC ([7]; NPC library, mean AUC of all 6 MCC cell lines): 388.11
MCC_Avg_AUC ([7]; NPC library, mean AUC of six MCC cell lines): 388.11
MKL2_AUC ([8]; NPC library, qHTS dose-response AUC, MKL2): 340.216
HACAT_AUC ([9]; NPC library, qHTS dose-response AUC, HACAT control): 455.974
CRL7250_AUC ([10]; NPC library, qHTS dose-response AUC, CRL7250 control): 476.052
NIH3T3_AUC ([11]; NPC library, qHTS dose-response AUC, NIH3T3 control): 449.726
WAGA_AUC ([12]; NPC library, qHTS dose-response AUC, WAGA): 408.656
HEK293T_AUC ([13]; NPC library, qHTS dose-response AUC, HEK293T control): 458.621
MCC26_AUC ([14]; NPC library, qHTS dose-response AUC, MCC26): 445.789
MKL1_AUC ([15]; NPC library, qHTS dose-response AUC, MKL1): 355.467

C#CCN(C)[C@H](C)Cc1ccccc1 [Selegiline hydrochloride]
Control-VN-MCC [1]: 1.446
VN-MCC_Avg_AUC [1]: 458.075
Control-VP-MCC [2]: 51.4197
VP-MCC_Avg_AUC [2]: 408.101
MCC13_AUC [3]: 453.711
Control-MCC [4]: 26.4329
Control_Avg_AUC [5]: 459.521
UISO_AUC [6]: 478.192
MCC_Avg_AUC [7]: 433.088
MKL2_AUC [8]: 391.028
HACAT_AUC [9]: 471.82
CRL7250_AUC [10]: 455.418
NIH3T3_AUC [11]: 471.047
WAGA_AUC [12]: 431.581
HEK293T_AUC [13]: 439.797
MCC26_AUC [14]: 442.321
MKL1_AUC [15]: 401.694

CN[C@@H]1[C@H](O)[C@H](NC)[C@H]2O[C@@]3(O)C(=O)C[C@@H](C)O[C@H]3O[C@@H]2[C@H]1O.Cl.Cl [Spectinomycin dihydrochloride]
Control-VN-MCC [1, 16]: 27.501
VN-MCC_Avg_AUC [1, 17]: 445.075
Control-VP-MCC [2, 18]: 192.409
VP-MCC_Avg_AUC [2, 19]: 280.167
MCC13_AUC [3, 20]: 461.506
MCC13_AUC [3, 21]: 467.588
Control-MCC [4, 22]: 109.955
Control_Avg_AUC [5, 23]: 472.576
UISO_AUC [6, 20]: 392.644
UISO_AUC [6, 24]: 477.843
MCC_Avg_AUC [7, 25]: 362.621
MKL2_AUC [8, 20]: 323.757
MKL2_AUC [8, 26]: 429.069
HACAT_AUC [9, 27]: 460.149
HACAT_AUC [9, 28]: 475.545
CRL7250_AUC [10, 27]: 477.882
CRL7250_AUC [10, 29]: 453.169
NIH3T3_AUC [11, 27]: 480.157
NIH3T3_AUC [11, 30]: 486.283
WAGA_AUC [12, 20]: 274.54
WAGA_AUC [12, 31]: 400.83
HEK293T_AUC [13, 27]: 472.116
HEK293T_AUC [13, 32]: 456.43
MCC26_AUC [14, 20]: 481.076
MCC26_AUC [14, 33]: 511.183
MKL1_AUC [15, 20]: 242.204
MKL1_AUC [15, 34]: 379.185

CC[N+](CC)(CC)CCOc1ccc(/C=C/c2ccccc2)cc1 [Stilonium iodide]
Control-VN-MCC [1]: -18.2672
VN-MCC_Avg_AUC [1]: 401.249
Control-VP-MCC [2]: 60.3449
VP-MCC_Avg_AUC [2]: 322.637
MCC13_AUC [3]: 466.903
Control-MCC [4]: 21.0388
Control_Avg_AUC [5]: 382.981
UISO_AUC [6]: 334.732
MCC_Avg_AUC [7]: 361.943
MKL2_AUC [8]: 312.305
HACAT_AUC [9]: 372.384
CRL7250_AUC [10]: 355.764
NIH3T3_AUC [11]: 427.937
WAGA_AUC [12]: 348.194
HEK293T_AUC [13]: 375.842
MCC26_AUC [14]: 402.111
MKL1_AUC [15]: 307.411

O=C(CCCCCCC(=O)Nc1ccccc1)NO [Suberoylanilide hydroxamic acid]
Control-VN-MCC [1, 16]: -12.0249
VN-MCC_Avg_AUC [1, 17]: 436.558
Control-VP-MCC [2, 18]: 69.1958
VP-MCC_Avg_AUC [2, 19]: 355.337
MCC13_AUC [3, 20]: 429.995
Control-MCC [4, 22]: 28.5854
Control_Avg_AUC [5, 23]: 424.533
UISO_AUC [6, 20]: 422.155
MCC_Avg_AUC [7, 25]: 395.947
MKL2_AUC [8, 20]: 344.522
HACAT_AUC [9, 27]: 451.394
CRL7250_AUC [10, 27]: 429.882
NIH3T3_AUC [11, 27]: 416.277
WAGA_AUC [12, 20]: 347.247
HEK293T_AUC [13, 27]: 400.579
MCC26_AUC [14, 20]: 457.523
MKL1_AUC [15, 20]: 374.242
